Laboratory results taken from PubChem BioAssay (NCI).
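How tested: cells in 96-well plates exposed to compound for 48 hours at five concentrations. At the GI50, growth is halved. TGI marks complete inhibition of growth.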

How the values were obtained:
Test in all cases: NCI-60 cell line screen, 48 h
T-47D breast = tested on: T-47D breast
A549 NSCLC = tested on: A549 NSCLC
PC-3 prostate = tested on: PC-3 prostate
MDA-N = tested on: MDA-N
HCT-116 colon = tested on: HCT-116 colon
SK-OV-3 ovarian = tested on: SK-OV-3 ovarian
EKVX NSCLC = tested on: EKVX NSCLC
SNB-78 CNS = tested on: SNB-78 CNS
DMS 273 small cell lung = tested on: DMS 273 small cell lung
HOP-18 NSCLC = tested on: HOP-18 NSCLC
XF 498 CNS = tested on: XF 498 CNS

SMILES	TGI (T-47D breast)	TGI (A549 NSCLC)	TGI (PC-3 prostate)	TGI (MDA-N)	TGI (HCT-116 colon)	TGI (SK-OV-3 ovarian)	TGI (EKVX NSCLC)	TGI (SNB-78 CNS)	TGI (DMS 273 small cell lung)	TGI (HOP-18 NSCLC)	GI50 (SK-OV-3 ovarian)	GI50 (XF 498 CNS)	TGI (XF 498 CNS)	GI50 (SNB-78 CNS)	GI50 (DMS 273 small cell lung)	GI50 (A549 NSCLC)	GI50 (HCT-116 colon)	GI50 (PC-3 prostate)	GI50 (EKVX NSCLC)	GI50 (T-47D breast)
COc1ccc2[nH]c3c([N+](=O)[O-])ccc(Cl)c3c(=O)c2c1	> 84.7 µM	> 100 µM	52.1 µM	> 55.6 µM	27.4 µM	> 100 µM	> 100 µM													
O=Nc1ccc(O)c2ncccc12	33.1 µM	30.4 µM	29.8 µM	6.01 µM	3.04 µM	31.3 µM	5.8 µM	11.4 µM	10.3 µM	51.8 µM										
CCN=C=NCCCN(C)C		> 100 µM	> 100 µM	> 100 µM	> 100 µM	> 100 µM	> 100 µM													
C/C1=N\NC(=O)c2ccccc2C(=O)N/N=C(\C)c2cccc1n2.O=[N+]([O-])[O-].[Zn+2]		> 100 µM			> 100 µM	> 100 µM	> 100 µM	> 100 µM		> 100 µM										
N=C(N)c1ccc(-c2ccc(-c3cncc4ccccc34)s2)cc1F						3.63 µM					1.84 µM									
OC(Cc1ccccc1)(Cc1ccccc1)c1ccccc1	> 100 µM	46.3 µM	34.4 µM	29.2 µM	35.8 µM		38 µM													
Nc1ccc(OCC(O)N2C(=O)c3ccccc3C2=O)cc1 (stereo not drawn)	> 100 µM	> 100 µM	> 100 µM	> 100 µM	> 100 µM	> 100 µM	> 100 µM													
O=S(=O)(O)c1cc(N=Nc2cc(S(=O)(=O)O)c3ccccc3c2O)ccc1/C=C/c1ccc(N=Nc2cc(S(=O)(=O)O)c3ccccc3c2O)cc1S(=O)(=O)O	> 1000 µM	> 1000 µM	986 µM	359 µM	> 433 µM	> 876 µM	> 632 µM	> 1000 µM	> 1000 µM			> 1000 µM	> 1000 µM	> 1000 µM	> 1000 µM					
COc1cc(C(C)(C)C)cc(OC)c1C(O)(c1c(OC)cc(C(C)(C)C)cc1OC)c1c(OC)cc(C(C)(C)C)cc1OC		1.23 µM			0.901 µM											0.324 µM	0.249 µM			
C=C(CN(C)C)C(=O)c1ccc(C)cc1C	18.6 µM	63.1 µM	31.1 µM	14.3 µM	13 µM	39.6 µM	40 µM	60.4 µM	44.2 µM	30.3 µM			27.6 µM							
Cc1ccc(P(c2ccc(C)cc2)c2ccc(C)cc2)cc1	> 100 µM	> 100 µM	> 100 µM	55.8 µM	28.2 µM	95.9 µM	> 100 µM													
CC(C)(C)C1(c2ccc(C3(c4ccccc4)Oc4ccccc4S3)[nH]2)Oc2ccccc2S1 (stereo not drawn)		> 100 µM			> 100 µM	> 100 µM	> 100 µM	> 100 µM	> 100 µM	> 100 µM			> 100 µM							
O=C(O)CC(C(=O)O)C1c2ccccc2-c2ccccc21 (stereo not drawn)	> 100 µM	> 100 µM	> 100 µM	> 100 µM	> 100 µM	> 100 µM	> 100 µM													
COC1/C=C\OC2(C)Oc3c(C)c(O)c4c(O)c(c(/C=N\OCCCc5ccccc5)c(O)c4c3C2=O)NC(=O)/C(C)=C\C=C/C(C)C(O)C(C)C(O)C(C)C(OC(C)=O)C1C (stereo not drawn)	15.6 µM	12.9 µM	11.2 µM	13 µM	5.26 µM	15.4 µM	17.7 µM													
c1ccc(-n2cnnc2-c2nsc3ccccc23)cc1		> 100 µM			> 100 µM		> 100 µM	> 100 µM	> 100 µM	> 100 µM										
Nc1cc(S(=O)(=O)O)cc2cc(S(=O)(=O)O)c(N=Nc3ccc(-c4ccc(N=Nc5c(S(=O)(=O)O)cc6cc(S(=O)(=O)O)cc(N)c6c5O)cc4)cc3)c(O)c12		> 100 µM			> 100 µM	> 100 µM	> 100 µM	> 100 µM	> 100 µM	> 100 µM			> 100 µM							
O=[N+]([O-])c1ccc(/C=N\Nc2ccc([N+](=O)[O-])cn2)cc1	> 100 µM	> 100 µM	> 100 µM	> 100 µM	> 100 µM	> 100 µM	> 100 µM													
C=C(C)[C@@H]1CC[C@]2(C(=O)Nc3ccccn3)CC[C@]3(C)[C@H](CC[C@@H]4[C@@]5(C)CCCNC(C)(C)[C@@H]5CC[C@]43C)[C@@H]12			6.2 µM			14.1 µM	2.53 µM				2.94 µM							1.99 µM	1.06 µM	
CCN(CC)C(=S)SC(=S)N(CC)CC	> 100 µM	> 100 µM	> 100 µM	> 100 µM	> 58.3 µM	> 100 µM	> 100 µM													
Nc1nc(N)c2ncn(-c3ccc(Cl)c(Cl)c3)c2n1	> 100 µM	> 100 µM	82.1 µM	> 100 µM	40.3 µM	> 100 µM	> 100 µM													
C=C(C)C(=O)OC1C(C(C)CCCO)=C(CO)CC2OC(=O)C(=C)C21 (stereo not drawn)	45.5 µM	63.7 µM	76.6 µM	37.7 µM	32.2 µM	95.7 µM	87.2 µM													
C=C(C)C1CC2=C(O1)C(=O)c1ccccc1C2=O (stereo not drawn)		42.3 µM				> 100 µM	60.3 µM	39.9 µM	33.5 µM				32.2 µM							
COc1ccc(-c2nn(-c3ccc(NC(=O)Nc4ccc(Cl)c(Cl)c4)cc3)cc2-c2ccncc2)cc1Cl	> 100 µM	> 100 µM	14.4 µM		11.7 µM		> 100 µM									1.56 µM	1.65 µM	1.29 µM	2.18 µM	3.24 µM
CC(C)=CCc1c(O)ccc2c1OC1c3ccc(O)c(CC=C(C)C)c3OCC21 (stereo not drawn)		26.5 µM			18.3 µM	35.1 µM	26.8 µM	33 µM	28.2 µM	33.3 µM			32.6 µM							
